{"source": "ChEMBL document CHEMBL5126611", "about": "“Design, Synthesis, and Biological Evaluations of Pyridyl 4,5,6,7-Tetrahydro-4,7-Methanobenzo[d]isoxazoles as Potent and Selective Inhibitors of 11β-Hydroxylase” (J Med Chem, 2022)", "key": {"Cytochrome P450 2C9": {"biological_target": "Cytochrome P450 2C9 (Homo sapiens, UniProt P11712)", "sequence (P11712 whole entry)": "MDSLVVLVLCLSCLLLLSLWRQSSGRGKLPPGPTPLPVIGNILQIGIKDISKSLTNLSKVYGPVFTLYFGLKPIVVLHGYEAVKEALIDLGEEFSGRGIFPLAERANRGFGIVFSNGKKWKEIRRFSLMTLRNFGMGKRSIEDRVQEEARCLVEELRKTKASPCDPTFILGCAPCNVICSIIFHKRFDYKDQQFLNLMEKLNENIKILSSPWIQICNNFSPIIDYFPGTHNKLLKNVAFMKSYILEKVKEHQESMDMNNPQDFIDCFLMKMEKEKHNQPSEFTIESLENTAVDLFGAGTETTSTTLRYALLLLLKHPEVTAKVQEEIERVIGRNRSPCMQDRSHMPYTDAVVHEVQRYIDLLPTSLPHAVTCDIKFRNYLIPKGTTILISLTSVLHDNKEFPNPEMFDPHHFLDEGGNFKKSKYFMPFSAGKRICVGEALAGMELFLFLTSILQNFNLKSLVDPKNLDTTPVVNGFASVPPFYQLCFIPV", "experiment": "Inhibition of human hepatic recombinant CYP2C9 using cocktail of substrate by LC-MS/MS analysis", "format": "ADME"}, "[1]": {"experiment": "Cytotoxicity against Chinese hamster V79 cells assessed as reduction in cell viability", "format": "toxicity, cell-based, Cricetulus griseus", "conditions": "read-out: LC50 (the source's name)"}, "Cytochrome P450 2C19": {"biological_target": "Cytochrome P450 2C19 (Homo sapiens, UniProt P33261)", "sequence (P33261 whole entry)": "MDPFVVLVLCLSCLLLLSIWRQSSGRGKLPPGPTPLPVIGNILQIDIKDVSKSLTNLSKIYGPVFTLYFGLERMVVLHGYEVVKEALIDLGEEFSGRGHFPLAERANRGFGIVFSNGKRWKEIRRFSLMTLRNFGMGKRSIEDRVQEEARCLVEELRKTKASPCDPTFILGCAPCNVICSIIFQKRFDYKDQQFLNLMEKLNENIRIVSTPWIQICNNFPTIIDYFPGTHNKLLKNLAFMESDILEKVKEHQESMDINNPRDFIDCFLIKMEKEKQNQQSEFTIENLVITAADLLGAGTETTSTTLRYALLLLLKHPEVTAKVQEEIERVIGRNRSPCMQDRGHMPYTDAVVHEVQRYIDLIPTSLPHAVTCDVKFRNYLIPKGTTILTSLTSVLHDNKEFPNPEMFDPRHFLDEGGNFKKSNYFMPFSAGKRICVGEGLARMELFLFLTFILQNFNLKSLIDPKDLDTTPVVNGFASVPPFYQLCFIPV", "experiment": "Inhibition of human hepatic recombinant CYP2C19 using cocktail of substrate by LC-MS/MS analysis", "format": "ADME"}, "Cytochrome P450 1A2": {"biological_target": "T1, Cytochrome P450 1A2 (Homo sapiens, UniProt P05177)", "T1 sequence (P05177 whole entry)": "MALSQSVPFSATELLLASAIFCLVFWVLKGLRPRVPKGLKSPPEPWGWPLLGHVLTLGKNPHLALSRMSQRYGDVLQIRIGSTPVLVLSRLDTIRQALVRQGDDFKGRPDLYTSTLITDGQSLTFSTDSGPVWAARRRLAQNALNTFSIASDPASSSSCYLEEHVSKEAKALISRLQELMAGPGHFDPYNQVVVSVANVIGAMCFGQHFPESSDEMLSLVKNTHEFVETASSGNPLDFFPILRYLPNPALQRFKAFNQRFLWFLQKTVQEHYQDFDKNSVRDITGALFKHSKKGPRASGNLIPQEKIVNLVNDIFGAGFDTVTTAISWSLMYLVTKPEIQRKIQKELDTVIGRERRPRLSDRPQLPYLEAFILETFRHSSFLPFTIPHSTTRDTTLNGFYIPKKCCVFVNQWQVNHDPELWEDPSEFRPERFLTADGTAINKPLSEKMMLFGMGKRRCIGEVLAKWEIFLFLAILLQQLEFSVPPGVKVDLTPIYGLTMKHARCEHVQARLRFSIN", "experiment": "Inhibition of human hepatic recombinant CYP1A2 using cocktail of substrate by LC-MS/MS analysis", "format": "ADME"}, "[2]": {"experiment": "Aqueous solubility of compound", "format": "physicochemical", "conditions": "buffer"}, "[3]": {"experiment": "Terminal half life in Sprague-Dawley rat at 5 mg/kg, iv measured up to 24 hrs by LC-MS analysis", "format": "ADME, organism-based", "conditions": "in vivo, read-out: beta t1/2 (converted)"}, "[4]": {"biological_target": "T2, Steroid 17-alpha-hydroxylase/17,20 lyase (Homo sapiens, UniProt P05093)", "T2 sequence (P05093 whole entry)": "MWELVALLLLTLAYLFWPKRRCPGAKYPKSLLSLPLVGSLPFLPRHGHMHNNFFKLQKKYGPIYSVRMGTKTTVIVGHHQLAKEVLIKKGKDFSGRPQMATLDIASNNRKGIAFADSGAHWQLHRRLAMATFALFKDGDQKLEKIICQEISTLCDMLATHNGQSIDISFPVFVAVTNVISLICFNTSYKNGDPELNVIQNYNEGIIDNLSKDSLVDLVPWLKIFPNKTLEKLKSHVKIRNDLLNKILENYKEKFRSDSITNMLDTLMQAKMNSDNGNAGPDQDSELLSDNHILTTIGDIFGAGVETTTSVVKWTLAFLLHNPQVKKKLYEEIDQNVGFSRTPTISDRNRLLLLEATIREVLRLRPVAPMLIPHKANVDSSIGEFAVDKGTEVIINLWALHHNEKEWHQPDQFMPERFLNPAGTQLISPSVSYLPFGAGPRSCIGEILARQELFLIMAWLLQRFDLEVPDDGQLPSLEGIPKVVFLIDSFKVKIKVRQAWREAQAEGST", "experiment": "Inhibition of human CYP17 expressed in Escherichia coli", "format": "ADME"}, "[5]": {"experiment": "Selectivity ratio of IC50 for inhibition of rat CYP11B2 to IC50 for inhibition of rat CYP11B1", "format": "ADME"}, "[6]": {"experiment": "Tmax in Sprague-Dawley rat at 5 mg/kg, iv measured up to 24 hrs by LC-MS analysis", "format": "ADME, organism-based", "conditions": "in vivo"}, "Cytochrome P450 2D6": {"biological_target": "Cytochrome P450 2D6 (Homo sapiens, UniProt P10635)", "sequence (P10635 whole entry)": "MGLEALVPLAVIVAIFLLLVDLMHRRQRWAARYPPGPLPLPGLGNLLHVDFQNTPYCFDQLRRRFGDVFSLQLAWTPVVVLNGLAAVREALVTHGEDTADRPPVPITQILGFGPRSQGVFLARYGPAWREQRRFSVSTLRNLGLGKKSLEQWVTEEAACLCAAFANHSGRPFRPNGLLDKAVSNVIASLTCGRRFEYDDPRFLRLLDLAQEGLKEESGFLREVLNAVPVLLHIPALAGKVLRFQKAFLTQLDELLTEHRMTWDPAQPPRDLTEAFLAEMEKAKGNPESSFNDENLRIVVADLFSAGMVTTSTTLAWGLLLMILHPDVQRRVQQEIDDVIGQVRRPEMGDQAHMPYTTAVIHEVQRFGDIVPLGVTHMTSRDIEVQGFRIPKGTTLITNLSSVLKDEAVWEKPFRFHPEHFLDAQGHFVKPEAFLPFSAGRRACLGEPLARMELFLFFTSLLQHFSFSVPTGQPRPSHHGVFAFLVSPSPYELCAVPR", "experiment": "Inhibition of human hepatic recombinant CYP2D6 using cocktail of substrate by LC-MS/MS analysis", "format": "ADME"}, "[7]": {"experiment": "Clearance in Sprague-Dawley rat at 5 mg/kg, iv measured up to 24 hrs by LC-MS analysis", "format": "ADME, organism-based", "conditions": "in vivo"}, "[8]": {"experiment": "AUC (0 to infinity) in Sprague-Dawley rat at 25 mg/kg, po measured up to 24 hrs by LC-MS analysis", "format": "ADME, organism-based", "set-up": "dose 25 mg/kg, time < 24 hrs, route po", "conditions": "in vivo"}, "[9]": {"experiment": "Cmax in Sprague-Dawley rat at 25 mg/kg, po measured up to 24 hrs by LC-MS analysis", "format": "ADME, organism-based", "set-up": "dose 25 mg/kg, time < 24 hrs, route po", "conditions": "in vivo"}, "[10]": {"experiment": "Cmax in Sprague-Dawley rat at 5 mg/kg, iv measured up to 24 hrs by LC-MS analysis", "format": "ADME, organism-based", "set-up": "dose 5 mg/kg, time < 24 hrs, route iv", "conditions": "in vivo"}, "[11]": {"experiment": "Terminal half life in Sprague-Dawley rat at 25 mg/kg, po measured up to 24 hrs by LC-MS analysis", "format": "ADME, organism-based", "conditions": "in vivo, read-out: beta t1/2 (converted)"}, "[12]": {"biological_target": "T3, Cytochrome P450 11B1, mitochondrial (Homo sapiens, UniProt P15538)", "T3 sequence (P15538 whole entry)": "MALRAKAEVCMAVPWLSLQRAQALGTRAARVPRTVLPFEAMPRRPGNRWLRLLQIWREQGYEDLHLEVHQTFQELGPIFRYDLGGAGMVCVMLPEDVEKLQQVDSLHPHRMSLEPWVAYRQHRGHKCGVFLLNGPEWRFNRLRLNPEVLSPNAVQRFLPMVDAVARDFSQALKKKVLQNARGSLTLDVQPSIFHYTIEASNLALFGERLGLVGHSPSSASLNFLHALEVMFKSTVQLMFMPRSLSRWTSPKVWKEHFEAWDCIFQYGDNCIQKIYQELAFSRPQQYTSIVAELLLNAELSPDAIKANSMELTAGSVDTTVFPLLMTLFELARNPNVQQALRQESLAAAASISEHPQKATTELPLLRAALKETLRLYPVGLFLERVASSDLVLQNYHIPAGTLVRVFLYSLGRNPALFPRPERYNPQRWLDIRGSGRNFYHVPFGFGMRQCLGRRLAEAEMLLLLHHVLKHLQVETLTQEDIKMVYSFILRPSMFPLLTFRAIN", "experiment": "Inhibition of human CYP11B1 expressed in Chinese hamster V79 MZh cells using [14C]-deoxycorticosteron as substrate measured after 6 hrs by phosphoimager analysis", "format": "ADME, cell-based"}, "[13]": {"experiment": "Tmax in Sprague-Dawley rat at 25 mg/kg, po measured up to 24 hrs by LC-MS analysis", "format": "ADME, organism-based", "conditions": "in vivo"}, "[14]": {"experiment": "AUC (0 to infinity) in Sprague-Dawley rat at 5 mg/kg, iv measured up to 24 hrs by LC-MS analysis", "format": "ADME, organism-based", "set-up": "time < 24 hrs, dose 5 mg/kg, route iv", "conditions": "in vivo"}, "Cytochrome P450 3A4": {"biological_target": "Cytochrome P450 3A4 (Homo sapiens, UniProt P08684)", "sequence (P08684 whole entry)": "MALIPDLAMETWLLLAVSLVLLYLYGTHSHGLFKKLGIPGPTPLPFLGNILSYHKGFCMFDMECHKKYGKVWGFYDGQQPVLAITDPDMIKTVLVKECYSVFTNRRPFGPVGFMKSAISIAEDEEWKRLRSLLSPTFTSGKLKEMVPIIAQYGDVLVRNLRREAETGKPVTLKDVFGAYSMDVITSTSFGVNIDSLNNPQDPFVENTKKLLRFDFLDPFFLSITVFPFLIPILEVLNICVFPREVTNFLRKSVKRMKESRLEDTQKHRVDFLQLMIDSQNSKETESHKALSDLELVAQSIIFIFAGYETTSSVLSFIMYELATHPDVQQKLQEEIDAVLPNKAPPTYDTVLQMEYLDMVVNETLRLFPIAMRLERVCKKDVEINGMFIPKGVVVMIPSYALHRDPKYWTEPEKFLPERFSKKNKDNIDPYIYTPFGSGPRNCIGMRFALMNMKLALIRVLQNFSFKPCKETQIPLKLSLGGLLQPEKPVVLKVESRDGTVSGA", "experiment": "Inhibition of human hepatic recombinant CYP3A using cocktail of substrate by LC-MS/MS analysis", "format": "ADME"}}, "data": [{"smiles": "O=C(Nc1ccc2[nH]ncc2c1)[C@]12ON=C(c3cccnc3)[C@H]1[C@@H]1CC[C@H]2C1", "values": [{"measurement": "IC50", "setting": "Cytochrome P450 2C9", "result": "> 10", "unit": "µM"}, {"measurement": "CC50", "setting": "[1]", "result": "> 50", "unit": "µM"}, {"measurement": "IC50", "setting": "Cytochrome P450 2C19", "result": "> 10", "unit": "µM"}, {"measurement": "IC50", "setting": "Cytochrome P450 1A2", "result": "> 10", "unit": "µM"}, {"measurement": "solubility", "setting": "[2]", "result": 196, "unit": "µM"}, {"measurement": "half-life", "setting": "[3]", "result": 4.5, "unit": "h"}, {"measurement": "IC50", "setting": "[4]", "result": "> 10", "unit": "µM"}, {"measurement": "Ratio IC50", "setting": "[5]", "result": 81}, {"measurement": "Tmax", "setting": "[6]", "result": 0, "unit": "h"}, {"measurement": "IC50", "setting": "Cytochrome P450 2D6", "result": "> 10", "unit": "µM"}, {"measurement": "CL", "setting": "[7]", "result": 0.287, "unit": "mL/min/kg"}, {"measurement": "AUC(0-inf)", "setting": "[8]", "result": 54500, "unit": "ng·h/mL"}, {"measurement": "Cmax", "setting": "[9]", "result": 7990, "unit": "ng/mL"}, {"measurement": "Cmax", "setting": "[10]", "result": 12700, "unit": "ng/mL"}, {"measurement": "half-life", "setting": "[11]", "result": 4.6, "unit": "h"}, {"measurement": "IC50", "setting": "[12]", "result": 0.009, "unit": "µM"}, {"measurement": "Tmax", "setting": "[13]", "result": 4.2, "unit": "h"}, {"measurement": "AUC", "setting": "[14]", "result": 50928.7, "unit": "ng·h/mL"}, {"measurement": "IC50", "setting": "Cytochrome P450 3A4", "result": "> 10", "unit": "µM"}]}]}
